Test results published in US12673954B2 (BRISTOL-MYERS SQUIBB COMPANY, priority 2021, dated 2026).
Where two headings read alike, the source gives them in different places.

Legend:
[1] = tested on: IRF pathway, THP1-Dual™ cells; test: STING reporter assay in THP1-Dual cells, IRF pathway (Lucia luciferase, QUANTI-Luc); format: cell-based, human; details: THP1-Dual cells, 10% human plasma, 20 hours, Lucia luciferase, 100% activation = 100 μM cGAMP, read-out: IRF (EC50 μM)
From the text: (§1) THP1-Dual™ cells were derived from the human THP-1 monocyte cell line by stable integration of two inducible reporter constructs. To this end, THP1-Dual™ cells allow the simultaneous study of the NF-κB pathway, by monitoring the activity of SEAP, and the IRF pathway by assessing the activity of a secreted luciferase (Lucia). Both reporter proteins are readily measurable in the cell culture supernatant when using QUANTI-Blue™, a SEAP detection reagent, and QUANTI-Luc™, a luciferase detection reagent.
(§2) THP1-Dual™ cells induce the activation of NF-κB in response to STING agonists. They also trigger the IRF pathway upon stimulation with STING agonists, such as cGAMP. Here, the THP-1-Dual cells were used to assess STING specific binders for function on the cellular level.
(§3) Serial dilutions of compounds in DMSO were added to low volume 384 well plates at 100 nl/well using an ECHO acoustic dispenser (Labcyte, model 550) to achieve final starting concentration of 100 μM in cell suspension. […] One column of the plate was reserved for treatment with cGAMP at 100 μM for 100% activation calculation and one column for no treatment (DMSO only) for baseline activation. Plates were then incubated in 37° C. incubator at 5% CO2 for 20 hours.
(§4) Plates were read on the Envision (Perkin Elmer) at 620 nm wavelength (OD620). In the luciferase assay, 5 μl of Quantiluc (Invivogen, Rep-qlc2) is added to white 384 well plates seeded with THP1 cells and read at 5 minutes on the Envision (Perkin Elmer) using a luminescence protocol (RLU). 100% activation was determined by value (RLU) of THP-1 Dual STING cells stimulated with 100 μM cGAMP (Invivogen, cat #TLRL-NACGA23-5).

[2] = tested on: NF-κB pathway, THP1-Dual™ cells; test: STING reporter assay in THP1-Dual cells, NF-κB pathway (SEAP, QUANTI-Blue); format: cell-based, human; details: THP1-Dual cells, 10% human plasma, 20 hours, SEAP, 100% activation = 100 μM cGAMP, read-out: NFkB (EC50 μM)
From the text: as §1, §2, §3, §4

Row | EC50 [1] [µM] | EC50 [2] [µM] | EC50 ([1]; Homo sapiens, THP1-Dual, 20 h) [µM] | EC50 ([2]; Homo sapiens, THP1-Dual, 20 h) [µM] | Compound
1 | 73 | 79 | – | – | CC(NC(=O)c1cnn2cccnc12)c1cc2cc(F)cc(C(=O)OCC(F)(F)F)c2o1 (single isomer, unassigned) [EXAMPLE 327, 2,2,2-Trifluoroethyl 5-fluoro-2-(1-(pyrazolo[1,5-a]pyrimidine-3-carboxamido)ethyl)benzofuran-7-carboxylate]
2 | 1.3 | 1.5 | – | – | CC(NC(=O)c1cnn2cccnc12)c1cc2cc(F)cc(C(=O)OCC(F)(F)F)c2o1 (single isomer, unassigned) [EXAMPLE 328, 2,2,2-Trifluoroethyl 5-fluoro-2-(1-(pyrazolo[1,5-a]pyrimidine-3-carboxamido)ethyl)benzofuran-7-carboxylate]
3 | 0.88 | 0.89 | – | – | CC(OC(=O)c1cc(Cl)cc2cc(CNC(=O)c3cnn4cccnc34)oc12)C(F)(F)F (single isomer, unassigned) [EXAMPLE 329, 1,1,1-Trifluoropropan-2-yl 5-chloro-2-((pyrazolo[1,5-a]pyrimidine-3-carboxamido)methyl)benzofuran-7-carboxylate]
4 | 4.7 | 5.5 | – | – | CC(OC(=O)c1cc(Cl)cc2cc(CNC(=O)c3cnn4cccnc34)oc12)C(F)(F)F (single isomer, unassigned) [EXAMPLE 330, 1,1,1-Trifluoropropan-2-yl 5-chloro-2-((pyrazolo[1,5-a]pyrimidine-3-carboxamido)methyl)benzofuran-7-carboxylate]
5 | – | – | 1.7 | 1.8 | COC(OC(=O)c1cc(Cl)cc2cc(CNC(=O)c3cnn4cccnc34)oc12)C(F)(F)F (single isomer, unassigned) [EXAMPLE 331, 2,2,2-Trifluoro-1-methoxyethyl 5-chloro-2-((pyrazolo[1,5-a]pyrimidine-3-carboxamido)methyl)benzofuran-7-carboxylate]
6 | 1.1 | 1.1 | – | – | COC(OC(=O)c1cc(Cl)cc2cc(CNC(=O)c3cnn4cccnc34)oc12)C(F)(F)F (single isomer, unassigned) [EXAMPLE 332, 2,2,2-Trifluoro-1-methoxyethyl 5-chloro-2-((pyrazolo[1,5-a]pyrimidine-3-carboxamido)methyl)benzofuran-7-carboxylate]
7 | – | – | 11 | 12 | O=C(OC1CC(c2ccc(F)cc2)C1)c1cc(Cl)cc2cc(CNC(=O)c3cnn4cccnc34)oc12 (single isomer, unassigned) [EXAMPLE 333, 3-(4-Fluorophenyl)cyclobutyl 5-chloro-2-((pyrazolo[1,5-a]pyrimidine-3-carboxamido)methyl)benzofuran-7-carboxylate]
8 | 16 | 23 | – | – | O=C(OC1CC(c2ccc(F)cc2)C1)c1cc(Cl)cc2cc(CNC(=O)c3cnn4cccnc34)oc12 (single isomer, unassigned) [EXAMPLE 334, 3-(4-Fluorophenyl)cyclobutyl 5-chloro-2-((pyrazolo[1,5-a]pyrimidine-3-carboxamido)methyl)benzofuran-7-carboxylate]
9 | – | – | 3.5 | 3.5 | CC(CC(F)(F)F)OC(=O)c1cc(Cl)cc2cc(CNC(=O)c3cnn4cccnc34)oc12 (single isomer, unassigned) [EXAMPLE 335, 4,4,4-Trifluorobutan-2-yl 5-chloro-2-((pyrazolo[1,5-a]pyrimidine-3-carboxamido)methyl)benzofuran-7-carboxylate]
10 | 3.2 | 2.5 | – | – | CC(CC(F)(F)F)OC(=O)c1cc(Cl)cc2cc(CNC(=O)c3cnn4cccnc34)oc12 (single isomer, unassigned) [EXAMPLE 336, 4,4,4-Trifluorobutan-2-yl 5-chloro-2-((pyrazolo[1,5-a]pyrimidine-3-carboxamido)methyl)benzofuran-7-carboxylate]
11 | – | – | 1.8 | 1.4 | COC(OC(=O)c1cc(Br)cc2cc(CNC(=O)c3cnn4cccnc34)oc12)C(F)(F)F (single isomer, unassigned) [EXAMPLE 339, 2,2,2-Trifluoro-1-methoxyethyl 5-bromo-2-((pyrazolo[1,5-a]pyrimidine-3-carboxamido)methyl)benzofuran-7-carboxylate]
12 | 0.91 | 0.92 | – | – | COC(OC(=O)c1cc(Br)cc2cc(CNC(=O)c3cnn4cccnc34)oc12)C(F)(F)F (single isomer, unassigned) [EXAMPLE 340, 2,2,2-Trifluoro-1-methoxyethyl 5-bromo-2-((pyrazolo[1,5-a]pyrimidine-3-carboxamido)methyl)benzofuran-7-carboxylate]
13 | 1.6 | 2.5 | – | – | CC(OC(=O)c1cc(Br)cc2cc(CNC(=O)c3cnn4cccnc34)oc12)C(F)(F)F (single isomer, unassigned) [EXAMPLE 341, 1,1,1-Trifluoropropan-2-yl 5-bromo-2-((pyrazolo[1,5-a]pyrimidine-3-carboxamido)methyl)benzofuran-7-carboxylate]
14 | 7.2 | 6 | – | – | CC(OC(=O)c1cc(Br)cc2cc(CNC(=O)c3cnn4cccnc34)oc12)C(F)(F)F (single isomer, unassigned) [EXAMPLE 342, 1,1,1-Trifluoropropan-2-yl 5-bromo-2-((pyrazolo[1,5-a]pyrimidine-3-carboxamido)methyl)benzofuran-7-carboxylate]
15 | – | – | 0.73 | 0.76 | COC(OC(=O)c1cc(C)cc2cc(CNC(=O)c3cnn4cccnc34)oc12)C(F)(F)F (single isomer, unassigned) [EXAMPLE 343, 2,2,2-Trifluoro-1-methoxyethyl 5-methyl-2-((pyrazolo[1,5-a]pyrimidine-3-carboxamido)methyl)benzofuran-7-carboxylate]
16 | 0.63 | 0.76 | – | – | COC(OC(=O)c1cc(C)cc2cc(CNC(=O)c3cnn4cccnc34)oc12)C(F)(F)F (single isomer, unassigned) [EXAMPLE 344, 2,2,2-Trifluoro-1-methoxyethyl 5-methyl-2-((pyrazolo[1,5-a]pyrimidine-3-carboxamido)methyl)benzofuran-7-carboxylate]
17 | – | – | 5.7 | 3.6 | COc1cc(C(=O)OC(C)C(F)(F)F)c2oc(CNC(=O)c3cnn4cccnc34)cc2c1 (single isomer, unassigned) [EXAMPLE 345, 1,1,1-Trifluoropropan-2-yl 5-methoxy-2-((pyrazolo[1,5-a]pyrimidine-3-carboxamido)methyl)benzofuran-7-carboxylate]
18 | 3.2 | 2.3 | – | – | COc1cc(C(=O)OC(C)C(F)(F)F)c2oc(CNC(=O)c3cnn4cccnc34)cc2c1 (single isomer, unassigned) [EXAMPLE 346, 1,1,1-Trifluoropropan-2-yl 5-methoxy-2-((pyrazolo[1,5-a]pyrimidine-3-carboxamido)methyl)benzofuran-7-carboxylate]
19 | – | – | 3.3 | 2.3 | COC(OC(=O)c1cc(C#N)cc2cc(CNC(=O)c3cnn4cccnc34)oc12)C(F)(F)F (single isomer, unassigned) [EXAMPLE 347, 2,2,2-Trifluoro-1-methoxyethyl 5-cyano-2-((pyrazolo[1,5-a]pyrimidine-3-carboxamido)methyl)benzofuran-7-carboxylate]
20 | 5.6 | 3.9 | – | – | COC(OC(=O)c1cc(C#N)cc2cc(CNC(=O)c3cnn4cccnc34)oc12)C(F)(F)F (single isomer, unassigned) [EXAMPLE 348, 2,2,2-Trifluoro-1-methoxyethyl 5-cyano-2-((pyrazolo[1,5-a]pyrimidine-3-carboxamido)methyl)benzofuran-7-carboxylate]
21 | 3.8 | 3.5 | – | – | CC(OC(=O)c1cc(C(F)(F)F)cc2cc(CNC(=O)c3cnn4cccnc34)oc12)C(F)(F)F (single isomer, unassigned) [EXAMPLE 349, 1,1,1-Trifluoropropan-2-yl 2-((pyrazolo[1,5-a]pyrimidine-3-carboxamido)methyl)-5-(trifluoromethyl)benzofuran-7-carboxylate]
22 | 17 | 54 | – | – | CC(OC(=O)c1cc(C(F)(F)F)cc2cc(CNC(=O)c3cnn4cccnc34)oc12)C(F)(F)F (single isomer, unassigned) [EXAMPLE 350, 1,1,1-Trifluoropropan-2-yl 2-((pyrazolo[1,5-a]pyrimidine-3-carboxamido)methyl)-5-(trifluoromethyl)benzofuran-7-carboxylate]
